Read-outs that look alike come from different tables or passages of the source.

The subject of the test is HBV. Description: HBV replication inhibition assay (BDNA assay) in HepG2.2.15 cells. The format is cell-based. As to conditions: HepG2.2.15 cells, read-out: DNA EC50. As to the method:
HBV replication inhibition by the disclosed compounds were determined in cells infected or transfected with HBV or cells with stably integrated HBV, such as HepG2.2.15 cells (Sells et al. 1987). In this example, HepG2.2.15 cells were maintained in cell culture medium containing 10% fetal bovine serum (FBS), Geneticin, L-glutamine, penicillin and streptomycin. HepG2.2.15 cells were seeded in 96-well plates at a density of 40,000 cells/well and were treated with serially diluted compounds at a final DMSO concentration of 0.5% either alone or in combination by adding drugs in a checker box format. Cells were incubated with compounds for three days, after which medium was removed and fresh medium containing compounds was added to cells and incubated for another three days. At day 6, supernatant was removed and treated with DNase at 37° C. for 60 minutes, followed by enzyme inactivation at 75° C. for 15 minutes. Encapsidated HBV DNA was released from the virions and covalently linked HBV polymerase by incubating in lysis buffer (Affymetrix QS0010) containing 2.5 μg proteinase K at 50° C. for 40 minutes. HBV DNA was denatured by addition of 0.2 M NaOH and detected using a branched DNA (BDNA) QuantiGene assay kit according to manufacturer recommendation (Affymetrix). HBV DNA levels were also quantified using qPCR, based on amplification of encapsidated HBV DNA extraction with QuickExtraction Solution (Epicentre Biotechnologies) and amplification of HBV DNA using HBV specific PCR probes that can hybridize to HBV DNA and a fluorescently labeled probe for quantitation. In addition, cell viability of HepG2.2.15 cells incubated with test compounds alone or in combination was determined by using CellTitre-Glo reagent according to the manufacturer protocol (Promega). The mean background signal from wells containing only culture medium was subtracted from all other samples, and percent inhibition at each compound concentration was calculated by normalizing to signals from HepG2.2.15 cells treated with 0.5% DMSO using equation E1. % inhibition=(DMSOave−Xi)/DMSOave×100% E1: […]
where DMSOave is the mean signal calculated from the wells that were treated with DMSO control (0% inhibition control) and Xi is the signal measured from the individual wells. EC50 values, effective concentrations that achieved 50% inhibitory effect, were determined by non-linear fitting using Graphpad Prism software (San Diego, Calif.) and equation E2: Y=Y min+(Y max−Y min)/(1+10(Log EC50−X)×HillSlope) E2: […]
where Y represents percent inhibition values and X represents the logarithm of compound concentrations.
Selected disclosed compounds were assayed in the HBV replication assay (BDNA assay), as described above, and a representative group of these active compounds is shown in Table 7. […] In Table 7, “A” represents 1<EC50≤100; “B” represents 100<EC50≤500; “C” represents 500<EC50≤1000; and “D” represents EC50>1000.

Where [1] appears, read: Hepatitis B virus, HepG2.2.15, HBV replication assay (BDNA assay).

Turning to `C[C@@H]1Cc2nn3c(c2CN1C(=O)Nc1cc(C(F)(F)F)ccc1F)C(=O)N(C)O[C@H](CO)C3` (relative stereo) [Compound 157_D1, (4S*,9R)—N-[2-fluoro-5-(trifluoromethyl)phenyl]-4-(hydroxymethyl)-2,9-dimethyl-1-oxo-5,8,9,11-tetrahydro-4H-pyrido[2,3]pyrazolo[2,4-d][1,2,5]oxadiazepine-10-carboxamide], the concentration for a half-maximal effect (EC50) (as a rule, the concentration giving half of the maximal effect) under setting [1] was 1 to 100 nM.
Still for that read-out and setting: with `C[C@@H]1Cc2nn3c(c2CN1C(=O)Nc1cc(C(F)(F)F)ccc1F)C(=O)N(C)O[C@@H](CO)C3` (relative stereo) [Compound 157_D2, (4R*,9R)—N-[2-fluoro-5-(trifluoromethyl)phenyl]-4-(hydroxymethyl)-2,9-dimethyl-1-oxo-5,8,9,11-tetrahydro-4H-pyrido[2,3]pyrazolo[2,4-d][1,2,5]oxadiazepine-10-carboxamide] the figure was 1 to 100 nM; with `CN1OC(CO)Cn2nc3c(c2C1=O)CN(C(=O)Nc1ccc(F)c(C(F)(F)F)c1)CC3` (single isomer, unassigned) [Compound 011_E1, (S*)—N-(4-fluoro-3-(trifluoromethyl)phenyl)-4-(hydroxymethyl)-2-methyl-1-oxo-1,4,5,8,9,11-hexahydropyrido[4′,3′:3,4]pyrazolo[5,1-d][1,2,5]oxadiazepine-10(2H)-carboxamide], 1 to 100 nM.
With `CN1OC(CO)Cn2nc3c(c2C1=O)CN(C(=O)Nc1ccc(F)c(C(F)(F)F)c1)CC3` (single isomer, unassigned) [Compound 011_E2, (R*)—N-(4-fluoro-3-(trifluoromethyl)phenyl)-4-(hydroxymethyl)-2-methyl-1-oxo-1,4,5,8,9,11-hexahydropyrido[4′,3′:3,4]pyrazolo[5,1-d][1,2,5]oxadiazepine-10(2H)-carboxamide], the EC50 (HBV replication assay (BDNA assay)) is 1 to 100 nM.
With `CN1OC(CO)Cn2nc3c(c2C1=O)CN(C(=O)Nc1cc(F)c(F)c(Cl)c1)CC3` (single isomer, unassigned) [Compound 028_E1, (S*)—N-(3-chloro-4,5-difluorophenyl)-4-(hydroxymethyl)-2-methyl-1-oxo-1,4,5,8,9,11-hexahydropyrido[4′,3′:3,4]pyrazolo[5,1-d][1,2,5]oxadiazepine-10(2H)-carboxamide], under setting [1], the EC50 fell in the range of 1 to 100 nM.
`CN1OC(CO)Cn2nc3c(c2C1=O)CN(C(=O)Nc1ccc(F)c(Cl)c1)CC3` (single isomer, unassigned) [Compound 031_E1, (S*)—N-(3-chloro-4-fluorophenyl)-4-(hydroxymethyl)-2-methyl-1-oxo-1,4,5,8,9,11-hexahydropyrido[4′,3′:3,4]pyrazolo[5,1-d][1,2,5]oxadiazepine-10(2H)-carboxamide]: under setting [1], the concentration for a half-maximal effect (EC50) fell in the range of 1 to 100 nM.
Same read-out and setting: to `CN1OC(CO)Cn2nc3c(c2C1=O)CN(C(=O)Nc1ccc(F)c(Br)c1)CC3` (single isomer, unassigned) [Compound 032_E1, (S*)—N-(3-bromo-4-fluorophenyl)-4-(hydroxymethyl)-2-methyl-1-oxo-1,4,5,8,9,11-hexahydropyrido[4′,3′:3,4]pyrazolo[5,1-d][1,2,5]oxadiazepine-10(2H)-carboxamide] belongs 1 to 100 nM; to `CN1OC(CO)Cn2nc3c(c2C1=O)CN(C(=O)Nc1ccnc(Br)c1F)CC3` (single isomer, unassigned) [Compound 033_E1, (S*)—N-(2-bromo-3-fluoropyridin-4-yl)-4-(hydroxymethyl)-2-methyl-1-oxo-1,4,5,8,9,11-hexahydropyrido[4′,3′:3,4]pyrazolo[5,1-d][1,2,5]oxadiazepine-10(2H)-carboxamide], 1 to 100 nM.
Same read-out and setting: with `CN1OC(CO)Cn2nc3c(c2C1=O)CN(C(=O)Nc1ccc(F)c(C#N)c1)CC3` (single isomer, unassigned) [Compound 034_E1, (S*)—N-(3-cyano-4-fluorophenyl)-4-(hydroxymethyl)-2-methyl-1-oxo-1,4,5,8,9,11-hexahydropyrido[4′,3′:3,4]pyrazolo[5,1-d][1,2,5]oxadiazepine-10(2H)-carboxamide] the figure was 1 to 100 nM.
On the same count and under the same terms, to `Cc1cc(NC(=O)N2CCc3nn4c(c3C2)C(=O)N(C)OC(CO)C4)ccc1F` (single isomer, unassigned) [Compound 035_E1, (S*)—N-(4-fluoro-3-methylphenyl)-4-(hydroxymethyl)-2-methyl-1-oxo-1,4,5,8,9,11-hexahydropyrido[4′,3′:3,4]pyrazolo[5,1-d][1,2,5]oxadiazepine-10(2H)-carboxamide] belongs 1 to 100 nM.
As for `CN1OC(CF)Cn2nc3c(c2C1=O)CN(C(=O)Nc1cccc(Cl)c1)CC3` (single isomer, unassigned) [Compound 037_E1, (S*)—N-(3-chlorophenyl)-4-(fluoromethyl)-2-methyl-1-oxo-1,4,5,8,9,11-hexahydropyrido[4′,3′:3,4]pyrazolo[5,1-d][1,2,5]oxadiazepine-10(2H)-carboxamide], under setting [1], the EC50 fell in the range of 1 to 100 nM.
Same read-out and setting: to `CN1OC(CF)Cn2nc3c(c2C1=O)CN(C(=O)Nc1ccc(F)c(Cl)c1)CC3` (single isomer, unassigned) [Compound 038_E1, (S*)—N-(3-chloro-4-fluorophenyl)-4-(fluoromethyl)-2-methyl-1-oxo-1,4,5,8,9,11-hexahydropyrido[4′,3′:3,4]pyrazolo[5,1-d][1,2,5]oxadiazepine-10(2H)-carboxamide] belongs 1 to 100 nM; to `CN1OC(CF)Cn2nc3c(c2C1=O)CN(C(=O)Nc1ccc(F)c(C(F)(F)F)c1)CC3` (single isomer, unassigned) [Compound 039_E1, (S*)—N-(4-fluoro-3-(trifluoromethyl)phenyl)-4-(fluoromethyl)-2-methyl-1-oxo-1,4,5,8,9,11-hexahydropyrido[4′,3′:3,4]pyrazolo[5,1-d][1,2,5]oxadiazepine-10(2H)-carboxamide], 1 to 100 nM.
Same read-out and setting: with `CN1OC(CF)Cn2nc3c(c2C1=O)CN(C(=O)Nc1ccc(F)c(Br)c1)CC3` (single isomer, unassigned) [Compound 040_E1, (S*)—N-(3-bromo-4-fluorophenyl)-4-(fluoromethyl)-2-methyl-1-oxo-1,4,5,8,9,11-hexahydropyrido[4′,3′:3,4]pyrazolo[5,1-d][1,2,5]oxadiazepine-10(2H)-carboxamide] the figure was 1 to 100 nM; with `CN1OC(CF)Cn2nc3c(c2C1=O)CN(C(=O)Nc1ccnc(Br)c1F)CC3` (single isomer, unassigned) [Compound 041_E1, (S*)—N-(2-bromo-3-fluoropyridin-4-yl)-4-(fluoromethyl)-2-methyl-1-oxo-1,4,5,8,9,11-hexahydropyrido[4′,3′:3,4]pyrazolo[5,1-d][1,2,5]oxadiazepine-10(2H)-carboxamide], 1 to 100 nM; with `CN1OC(CF)Cn2nc3c(c2C1=O)CN(C(=O)Nc1ccc(F)c(C#N)c1)CC3` (single isomer, unassigned) [Compound 042_E1, (S*)—N-(3-cyano-4-fluorophenyl)-4-(fluoromethyl)-2-methyl-1-oxo-1,4,5,8,9,11-hexahydropyrido[4′,3′:3,4]pyrazolo[5,1-d][1,2,5]oxadiazepine-10(2H)-carboxamide], 1 to 100 nM.
On to `Cc1cc(NC(=O)N2CCc3nn4c(c3C2)C(=O)N(C)OC(CF)C4)ccc1F` (single isomer, unassigned) [Compound 043_E1, (S*)—N-(4-fluoro-3-methylphenyl)-4-(fluoromethyl)-2-methyl-1-oxo-1,4,5,8,9,11-hexahydropyrido[4′,3′:3,4]pyrazolo[5,1-d][1,2,5]oxadiazepine-10(2H)-carboxamide], for which the half-maximal effective concentration (EC50) under setting [1] is 1 to 100 nM.
`CN1OC(CF)Cn2nc3c(c2C1=O)CN(C(=O)Nc1cc(F)c(F)c(Cl)c1)CC3` (single isomer, unassigned) [Compound 044_E1, (S*)—N-(3-chloro-4,5-difluorophenyl)-4-(fluoromethyl)-2-methyl-1-oxo-1,4,5,8,9,11-hexahydropyrido[4′,3′:3,4]pyrazolo[5,1-d][1,2,5]oxadiazepine-10(2H)-carboxamide]: under setting [1], the EC50 is 1 to 100 nM.
The same measure, in the same setting: with `CCN1OC(CO)Cn2nc3c(c2C1=O)CN(C(=O)Nc1ccc(F)c(Cl)c1)CC3` (single isomer, unassigned) [Compound 060_E1, (S*)—N-(3-chloro-4-fluorophenyl)-2-ethyl-4-(hydroxymethyl)-1-oxo-1,4,5,8,9,11-hexahydropyrido[4′,3′:3,4]pyrazolo[5,1-d][1,2,5]oxadiazepine-10(2H)-carboxamide] the figure was 1 to 100 nM.

The values are drawn from patent publication US10987359B2, “Oxadiazepinone derivatives and methods of treating hepatitis B infections” (priority 2016, dated 2021).
